Assay [1] concerns Akt. The conditions noted are these: cited from earlier work.
For assay [2], the target named is T1, Akt2 (Homo sapiens, UniProt P31751). Briefly: Non-radioactive kinase assay, phosphorylation of GSK-3α/β fusion protein. On the set-up: purchased Abcam. It counts as biochemical. Here is the method:
The non-radioactive kinase assay kit for Akt2 was purchased from Cell Signaling. Ligand solutions were made in DMSO. Kinase reactions were set up in 1× kinase buffer (25 mM trisHCl (pH 7.5), 10 mM MgCl2, 0.01% Triton-X, 1× Complete protease inhibitor (Roche), 1× Phosstop phosphatase inhibitor (Roche)), each 25 μL reaction mixture containing 400 ng Akt2, 400 ng GST-GSK-3α/β fusion protein, […] and 0.5 μL of peptide solutions in DMSO or DMSO only. Reactions were allowed to proceed for 30 minutes at 30° C. A reaction mixture was also prepared using a 1:2.5 dilution of anti pS473 antibody (Cell Signaling) in the kinase buffer instead of the peptide ligand or DMSO. The reactions were quenched by adding 12.5 μL of 2×SDS sample loading buffer and heating at 95° C. for five minutes. 10 μL from each sample was loaded on an any kD SDS gel (BioRad) and run for an hour at 110 volts. Following semidry transfer of the gel to a nitrocellulose membrane, the membrane was blocked in 5% nonfat milk/TBST for an hour at 4° C., and treated overnight at 4° C. with a 1:200 dilution of Phospho GSK-3α/β Ser (21/9) rabbit antibody (Cell Signaling) in 0.5% milk/TBST. Following washes, the membrane was treated with a 1:2000 dilution of mouse anti-rabbit-HRP antibody for an hour at 4° C. After four five minute washes with TBST, and one five minute wash with TBS, the membrane was treated with West Dura ECL substrate (Thermo Scientific) and imaged on film.

Assay [3] has as its target T2, target peptide epitope (Akt2 450-481, pS474) (Homo sapiens, UniProt P31751).
T2 construct: made in house; host or cells: chemical solid-phase peptide synthesis (Rink Amide MBHA resin)
T2 sequence (P31751 450-481 limits assumed): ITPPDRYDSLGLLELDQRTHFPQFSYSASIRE
Briefly: ELISA of C terminal triligand candidates binding to the target peptide epitope. The conditions noted are these: listed as C-t1. On the procedure: Selection of the final C terminal triligand C-tL: Four triligand candidates were synthesized with (L-Az4)-hdGGf (SEQ ID NO:25) […], (L-Az4)-hdGsf (SEQ ID NO:74) (C-t2), (L-Az4)-hdGww (SEQ ID NO:67) (C-t3), (L-Az4)-hdGkf (SEQ ID NO:77) (C-t4) as the 3° peptide arm. Binding of the candidates to the target peptide epitope was determined in an ELISA assay (FIG. 20C) and the ligand C-t1 emerged as the best binder. C-t1 was chosen as the C terminal triligand C-tL.
(§1) 1.25 μM biotinylated ligand was prepared by diluting the 1 mM stock in binding buffer (25 mM tris chloride, pH=7.4, 150 mM NaCl, 0.1% BSA, 0.05% Tween 20). The prepared ligand solution or 0.125% DMSO in buffer (buffer control) was immobilized on a High Capacity Streptavidin 96 well plate (Thermo Scientific). After washing away the excess ligand, the plate was blocked overnight with 1% BSA/25 mM tris chloride, pH=7.4/150 mM NaCl, 0.05% Tween 20. 2.5 μM solutions of the His6 (SEQ ID NO:28) tagged target phosphopeptide epitope Akt2 amino acids 450-481, His6 (SEQ ID NO:28) tagged Akt1 amino acids 449-480, His6 (SEQ ID NO:28) tagged Akt3 amino acids 448-479 were added to each of the wells. […] The A450 measured on a 96-well plate reader. The Net A450 was obtained by subtracting the absorbance value for the blank control (no immobilized ligand) from each of the triplicate values obtained for the ligand-epitope interaction. […]

A further assay concerns the target T3, Akt2 epitope (450-481) (Homo sapiens, UniProt P31751).
T3 construct: made in house; host or cells: chemical solid-phase peptide synthesis (Rink Amide MBHA resin)
T3 sequence (P31751 450-481 limits assumed): T2 sequence (P31751 450-481 limits assumed)
Briefly: Epitope selectivity ELISA with His6 tagged C-terminal 32-mer fragments. It counts as binding. The conditions noted are these: peptide fragments; set also full protein level. Here is the method:
as §1, with “wells. Following three washes with the binding buffer, the plate was treated for an hour with a 1:1000 dilution of anti His6 (SEQ ID NO:28) mouse monoclonal antibody. A 1:10,000 dilution of goat anti mouse antibody-Horse Radish Peroxide conjugate in binding buffer was added to the wells. The plates were washed four times, five minutes each, with 0.05% Tween 20/TBS (25 mM tris chloride, pH=7.5, 150 mM NaCl) and once with TBS (25 mM tris chloride, pH=7.5, 150 mM NaCl).” for “wells.”

The target in assay [4] is T4, Akt (Homo sapiens, UniProt P31751).
T4 construct: endogenous in cells; host or cells: OVCAR3
Briefly: OVCAR3 lysate pull-down (immunoprecipitation) assay. It counts as binding. The conditions noted are these: eluents stained with pan-Akt antibody. On the procedure: OVCAR3 cells (ATCC) were grown in RPMI-1640 media containing 20% fetal bovine serum. Passage three cells were grown to ˜80% confluence. Cells were lysed with lysis buffer (10 mM Tris-Cl (pH=7.5), 100 mM NaCl, 1% (v/v) Triton X-100, 0.1% SDS (w/v), 0.5% deoxycholate, 1 mM DTT, 1 mM EDTA, 1× PhosStop phosphatase inhibitors (Roche), 1× Complete protease inhibitors (Roche)) and the amount of protein measured using BCA Protein Assay Kit (Pierce Biotechnologies, Inc). Streptavidin-agarose resin solution (EMD) was swelled in TBST (25 mM tris chloride, pH=7.5, 150 mM NaCl, 0.05% Tween-20). Each of the biotinylated ligands was immobilized on the Streptavidin-agarose resin by adding 7.2 μL of 1 mM ligand stock (DMSO) to 10 μL of the swelled streptavidin-agarose resin. For the blank control, the resin was treated with 7.2 μL of 1 mM biotinylated acyl glycine. […] After shaking overnight at 4° C., 50 μM D-biotin was added to the resin to block any remaining sites. The resin was washed with TBST five times, for fifteen minutes each. The resin was then swelled in binding buffer for two hours. To each of the immobilized ligands, 200 μL OVCAR3 cell lysate (1.9 mg/ml) was added. The tubes were shaken at 4° C. for 18 hours. The beads were extensively washed, three times for fifteen minutes in binding buffer, three times (fifteen minutes) in TBST, and three times (fifteen minutes) in TBS to remove unbound proteins. The resin bound proteins were eluted by adding 40 μL of 2×SDS-PAGE sample loading buffer (BioRad) and heating at 95° C. for five minutes. A 1:10 diluted sample of lysate in sample loading buffer was prepared by mixing 1 μL of the sample with 9 μL sample loading buffer and denaturing the sample by heating at 95° C. for five minutes. 10 μL of each sample was loaded on a 12% SDS-PAGE gels (BioRad) and run for 80 minutes at 110 volts. Three identical gels were loaded and run at the same time. One gel was used for Coomassie staining with Coomassie Fluor Orange Protein Gel Stain (Molecular Probes) following the manufacturer's protocol. The two other gels were transferred to nitrocellulose membranes by the semidry transfer method, blocked for two hours at 4° C. with 5% non-fat milk, and treated overnight at 4° C. with a 1:1000 dilution of pan-Akt rabbit monoclonal antibody (Cell Signaling Technology) and a 1:1000 dilution of pS473 Akt rabbit monoclonal antibody (Cell Signaling Technology), respectively, in 0.5% non-fat milk. The membranes were washed and treated for an hour with a 1:10,000 dilution of monoclonal mouse anti-rabbit-HRP secondary antibody (Cell Signaling Technology) in 0.5% milk. After five washes of five minutes each with TBST and one wash of five minutes with TBS, the blots were developed with West Dura ECL substrate (Thermo Scientific) and imaged on film.

Assay [5] addresses T1, Akt2. Briefly: Single component ELISA, PCC agent as capture or detection agent (relative affinity). It counts as binding. Also on record: purchased Abcam. The conditions noted are these: read-out: EC50 from single component ELISA. The source says:
FIG. 23: A. ELISA assays in which the PCC Agents are utilized as either as surface-localized capture agents (for N-tL, C-tL) or as the detection agent (for mono-L, bi-L). Such assays provide relative affinity measurements, which are given as EC50 values in the key. […] C. C-tL distinguishes the full length Akt2 from isoform proteins Akt1 and Akt3. D. The 32 amino acid long C terminal fragment from Akt2, Akt1 and Akt3. The hydrophobic motif is highlighted in blue. pS refers to phospho-serine. […] F. Selectivity assays: Biotinylated ligands or biotinylated pS473 antibody is immobilized on streptavidin-agarose and treated with OVCAR3 cell lysate. The eluents are stained with a pan-Akt antibody or pS473 Akt antibody.
1.25 μM biotinylated ligand was prepared by diluting the 1 mM stock in binding buffer (25 mM tris chloride, pH=7.4, 150 mM NaCl, 0.1% BSA, 0.05% Tween 20). The prepared ligand solution or 0.125% DMSO in buffer (buffer control) was immobilized on a High Capacity Streptavidin 96 well plate (Thermo Scientific). After washing away the excess ligand, the plate was blocked overnight with 1% BSA/25 mM tris chloride, pH=7.4/150 mM NaCl, 0.05% Tween 20. 2.5 μM solutions of the His6 (SEQ ID NO:28) tagged target phosphopeptide epitope Akt2 amino acids 450-481, His6 (SEQ ID NO:28) tagged Akt1 amino acids 449-480, His6 (SEQ ID NO:28) tagged Akt3 amino acids 448-479 were added to each of the wells. Following three washes with the binding buffer, the plate was treated for an hour with a 1:1000 dilution of anti His6 (SEQ ID NO:28) mouse monoclonal antibody. A 1:10,000 dilution of goat anti mouse antibody-Horse Radish Peroxide conjugate in binding buffer was added to the wells. The plates were washed four times, five minutes each, with 0.05% Tween 20/TBS (25 mM tris chloride, pH=7.5, 150 mM NaCl) and once with TBS (25 mM tris chloride, pH=7.5, 150 mM NaCl). Color was developed by adding TMB substrate (KPL) to each well. The reaction was quenched with 0.5 M H2SO4. The A450 measured on a 96-well plate reader. The Net A450 was obtained by subtracting the absorbance value for the blank control (no immobilized ligand) from each of the triplicate values obtained for the ligand-epitope interaction. The selectivity assay with full length His6 (SEQ ID NO:28) tagged Akt1, Akt2 and Akt3 was performed following the same protocol, using 25 nM protein instead of 2.5 μM His6 tagged peptide epitope.

The structures appear in SMILES notation. pEC50: −log10 of the molar value. Values joined by “and” are separate entries in the source; they are usually repeats but may differ in a detail not shown here. Equal values may be shown once. “Also recorded” adds a separate entry of the source.

T1 sequence (P31751 whole entry, the tested form may be a part): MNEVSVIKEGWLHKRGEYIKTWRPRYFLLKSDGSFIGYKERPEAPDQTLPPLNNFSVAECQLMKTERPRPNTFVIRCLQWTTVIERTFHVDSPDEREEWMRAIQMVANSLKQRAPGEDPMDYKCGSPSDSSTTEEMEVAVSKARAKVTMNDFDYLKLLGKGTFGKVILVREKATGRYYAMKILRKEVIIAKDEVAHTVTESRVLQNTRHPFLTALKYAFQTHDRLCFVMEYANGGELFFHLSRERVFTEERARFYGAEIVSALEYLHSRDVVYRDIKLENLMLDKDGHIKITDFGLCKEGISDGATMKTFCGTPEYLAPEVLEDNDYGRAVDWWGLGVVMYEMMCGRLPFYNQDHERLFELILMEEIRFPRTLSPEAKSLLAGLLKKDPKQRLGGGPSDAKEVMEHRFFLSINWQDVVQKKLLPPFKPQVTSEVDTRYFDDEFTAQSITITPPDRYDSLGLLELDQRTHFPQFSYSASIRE
T4 sequence (P31751 whole entry): as the sequence (P31751 whole entry, the tested form may be a part) above

Take `Cc1n[nH]c2ccc(-c3cncc(OC[C@@H](N)Cc4c[nH]c5ccccc45)c3)cc12` [A-443654]: the “effect on Akt phosphorylation” value with Akt [1] was “paradoxical hyper-phosphorylation of Akt at both Thr308 and Ser473”.

With `CC(=O)NC(CCCCn1cc(C[C@@H](NC(=O)CCCCn2cc(C[C@@H](NC(=O)[C@@H](Cc3ccccc3)NC(=O)[C@@H](Cc3ccc(O)cc3)NC(=O)CNC(=O)[C@@H](CC(N)=O)NC(=O)[C@H](N)Cc3c[nH]cn3)C(=O)O)nn2)C(=O)N[C@H](Cc2c[nH]c3ccccc23)C(=O)N[C@H](CCCCN)C(=O)N[C@@H](C(=O)N[C@H](CCCCN)C(=O)N[C@H](CCCCNC(=O)CCc2cn(CCCC[C@H](NC(C)=O)C(=O)N[C@H](Cc3c[nH]cn3)C(=O)N[C@H](CC(=O)O)C(=O)NCC(=O)NCC(=O)N[C@H](Cc3ccccc3)C(N)=O)nn2)C(=O)N2CCCCC2)C(C)C)nn1)C(=O)NCCOCCOCCOCCC(=O)NCCNC(=O)CCCC[C@@H]1SC[C@@H]2NC(=O)N[C@@H]21` (stereo partly shown) [C-tL], the pEC50 is 5.40 and ~5.40 on Akt2 [2] (densitometry of pGSK3α/β western blot, normalized to DMSO control, read-out: EC50 of inhibition of Akt2 kinase activity); 6.90 at Akt2 [5]. The “influence on Akt2 kinase activity (p-GSK-3α/β level)” value on Akt2 [2] (relative to DMSO control) is given as “inhibits Akt2 kinase activity”. Moreover, the “binding to the target peptide epitope” value in assay [3] was “best binder; also recorded: shows good binding”. In addition, the “selectivity for the Akt2 epitope compared to corresponding regions in Akt1 and Akt3” value on Akt2 epitope (450-481) is “significant selectivity for the Akt2 epitope”. The “immunoprecipitation of Akt from OVCAR3 cell lysate” value on Akt [4] was “lower signal than N-tL”.
